US20220339143A1, “TAK-925 FOR USE IN TREATING NARCOLEPSY” (Takeda Pharmaceutical Company Limited, priority 2019, published 2022)
“Also recorded” adds a separate entry of the source. Read-outs that look alike come from different tables or passages of the source.

Experiments:
patients with NT1 = assay: Epworth Sleepiness Scale (ESS), multiple dose (Cohorts B1, B2); assay type: in vivo, human; conditions: for ESS Change from Baseline, Median / ESS Observed Value, Median: Day 7; for ESS Observed Value, Mean: Day 7 (placebo 16.3); for ESS Change from Baseline, Mean: Day 7 (placebo −0.3)
Procedure: The purpose of the study was to evaluate the safety, tolerability, pharmacokinetics and pharmacodynamics of Compound A after multiple IV administration in patients with NT1. NT1 patients were evaluated in Cohort B1 and B2 (Table 19). Compound A or placebo were administered via IV infusion over 9 hours once daily for 7 days. A total of 13 patients with NT1 were treated with Compound A or placebo (4, 4, and 5 subjects in the placebo, Compound A 11 mg, and Compound A 44 mg groups, respectively). In this part, potential efficacy of Compound A was evaluated with MWT, ESS, KSS, night-time PSG (NPSG), cataplexy frequency assessment, and PGI-C as an exploratory PD assessment.

[1] = Single dose PK in patients with narcolepsy (Cohorts 5, 6 and 7), plasma; assay type: in vivo, human; conditions: for AUC: read-out: AUC24; for concentration at 9 h: read-out: Ceoi
Procedure: This study investigates (i) the safety and tolerability of Compound A (methyl (2R,3S)-3-((methylsulfonyl)amino)-2-(((cis-4-phenylcyclohexyl)oxy)methyl)piperidine-1-carboxylate) when a single dose given as a 9 hour continuous IV infusion is administered to healthy adults, healthy elderly subjects and patients with narcolepsy type 1 (NT1); (ii) the pharmacokinetics of Compound A when a single dose given as a 9 hour continuous IV infusion is administered to healthy adults, healthy elderly subjects and patients with narcolepsy type 1; and (iii) the pharmacodynamics (PD) effects of Compound A, primarily by evaluation of the sleep latency on MWT when a single dose given as a 9 hour continuous IV infusion is administered to patients with narcolepsy type 1.
In Part 2, NT1 patients received a single dose of Compound A or placebo administered as a continuous IV infusion over a 9-hour period during the day. A 40-minute Maintenance of Wakefulness Test (MWT) was conducted 4 times during the continuous IV infusion to assess effects on wakefulness in soporific conditions at 2, 4, 6 and 8 hours from start of infusion. Three cohorts of patients were enrolled (n=14 total).
Pharmacokinetics: Concentrations of Compound A in plasma, and CSF, and pharmacokinetics parameters.
On average, the time to reach the plateau appeared to be approximately 4 hours after the start of infusion. […] After switching off the IV infusion, Compound A plasma concentrations declined rapidly and in a biphasic manner with a mean terminal disposition phase t1/2z ranging approximately from 3.5 to 4.1 hours across the doses.

[2] = Cmpd A 5 mg, Mean, Cohort 5, 6, 7
[3] = Cmpd A 5 mg, Median, Cohort 5, 6, 7
[4] = Cmpd A 11.2 mg, Mean, Cohort 5, 6, 7
[5] = Cmpd A 11.2 mg, Median, Cohort 5, 6, 7
[6] = Cmpd A 44.8 mg, Mean, Cohort 5, 6, 7
[7] = Cmpd A 44.8 mg, Median, Cohort 5, 6, 7
[8] = human, plasma, intravenous, 5 mg, Cmpd A 5 mg, Geo Mean, Cohort 5, 6, 7
[9] = human, plasma, intravenous, 5 mg, Cmpd A 5 mg, Mean, Cohort 5, 6, 7
[10] = human, plasma, intravenous, 5 mg, Cmpd A 5 mg, Median, Cohort 5, 6, 7
[11] = human, plasma, intravenous, 11.2 mg, Cmpd A 11.2 mg, Geo Mean, Cohort 5, 6, 7
[12] = human, plasma, intravenous, 11.2 mg, Cmpd A 11.2 mg, Mean, Cohort 5, 6, 7

## COC(=O)N1CCC[C@H](NS(C)(=O)=O)[C@@H]1CO[C@H]1CC[C@@H](c2ccccc2)CC1 [Compound A, methyl (2R,3S)-3-((methylsulfonyl)amino)-2-(((cis-4-phenylcyclohexyl)oxy)methyl)piperidine-1-carboxylate]
Patients with NT1; 11 mg
  ESS Change from Baseline, Median: −9.5
  ESS Observed Value, Median: 8.5
  ESS Observed Value, Mean: 9.8
  ESS Change from Baseline, Mean: −8.3
Patients with NT1; 44 mg
  ESS Change from Baseline, Median: −18.0
  ESS Observed Value, Median: 0.0
  ESS Observed Value, Mean: 0.0
  ESS Change from Baseline, Mean: −18.6
[1]; [2]
  AUCinf D: 17.88 ng·h/mL/mg
  CL: 57.05 L/h
  Cmax D: 2.050 ng/mL/mg
  t½z: 3.465 h
[1]; [3]
  AUCinf D: 18.20 ng·h/mL/mg
  Cmax D: 2.000 ng/mL/mg
  Vz: 284.5 L
  t½z: 3.380 h
[1]; [4]
  AUCinf D: 17.95 ng·h/mL/mg
  Cmax D: 1.963 ng/mL/mg
  Vss: 114.1 L
  Vz: 316.8 L
  t½z: 3.923 h
[1]; [5]
  AUCinf D: 18.05 ng·h/mL/mg
  Cmax D: 1.990 ng/mL/mg
  Vss: 113.5 L
  Vz: 336.5 L
  t½z: 4.020 h
[1]; [6]
  AUCinf D: 21.45 ng·h/mL/mg
  Cmax D: 2.195 ng/mL/mg
  t½z: 4.130 h
[1]; [7]
  AUCinf D: 20.80 ng·h/mL/mg
  Cmax D: 2.170 ng/mL/mg
  t½z: 3.885 h
[1]; IV administration
  systemic exposures and clearance in NT1 patients vs healthy adults: consistent with those observed in healthy adults; also recorded: comparable with those observed in healthy adults
[1]; doses of 5 to 44.8 mg, NT1 patients
  dose proportionality of mean plasma systemic exposure: increased approximately dose proportionally
[1]; [8]
  AUC(0-inf): 88.5 ng·h/mL
  AUC(0-t): 86.2 ng·h/mL
  Cmax: 10.1 ng/mL
  AUC: 88 ng·h/mL
  concentration at 9 h: 9.65 ng/mL
[1]; [9]
  AUC(0-inf): 89.3 ng·h/mL
  AUC(0-t): 87.2 ng·h/mL
  Cmax: 10.2 ng/mL
  Tmax: 8 h
  AUC: 88.8 ng·h/mL
  concentration at 9 h: 9.71 ng/mL
[1]; human, plasma, intravenous, 5 mg, Cmpd A 5 mg, Mean, Cohort 5, 6, 7, read-out: Vss
  Vd: 112 L
[1]; human, plasma, intravenous, 5 mg, Cmpd A 5 mg, Mean, Cohort 5, 6, 7, read-out: Vz
  Vd: 282 L
[1]; [10]
  AUC(0-inf): 91.1 ng·h/mL
  AUC(0-t): 89.2 ng·h/mL
  Cmax: 9.99 ng/mL
  Tmax: 9 h
  AUC: 90.8 ng·h/mL
  concentration at 9 h: 9.99 ng/mL
[1]; human, plasma, intravenous, 5 mg, Cmpd A 5 mg, Median, Cohort 5, 6, 7, read-out: CL (converted)
  clearance: 915 mL/min
[1]; human, plasma, intravenous, 5 mg, Cmpd A 5 mg, Median, Cohort 5, 6, 7, read-out: Vss
  Vd: 110 L
[1]; [11]
  AUC(0-inf): 201 ng·h/mL
  AUC(0-t): 199 ng·h/mL
  Cmax: 21.9 ng/mL
  AUC: 199 ng·h/mL
  concentration at 9 h: 21.2 ng/mL
[1]; [12]
  AUC(0-inf): 201 ng·h/mL
  AUC(0-t): 199 ng·h/mL
  Cmax: 22 ng/mL
  Tmax: 7.75 h
